Source: patent publication US9580418B2, “Bicyclic aromatic carboxamide compounds useful as Pim kinase inhibitors” (Incyte Corporation, priority 2014, dated 2017)

Tests used:
[1] = biological target: Pim-1 (Homo sapiens (Human), UniProt P11309); assay: Pim-1 kinase assay (Pim enzyme assays, Example A); type: biochemical; conditions: 1 mM ATP, BAD peptide substrate; read-out: PIM1 IC50
Protocol: (§1) Pim-1 and Pim-3 kinase assays-20 μL reactions were run in white 384 well polystyrene plates dotted with 0.8 μL compound/DMSO in the assay buffer (50 mM Tris, pH 7.5, 0.01% Tween-20, 5 mM mgCl2, 0.01% BSA, 5 mM DTT), containing 0.05 μM Biotin-labeled BAD peptide substrate (AnaSpec 62269), 1 mM ATP, and 2.5 pM (Pim-1, Invitrogen PV3503) or 1.25 pM (Pim-3, Millipore 14-738) enzyme for 1 h at 25° C. Reactions were stopped by addition of 10 μL STOP Buffer (150 mM Tris, pH=7.5, 150 mM NaCl, 75 mM EDTA, 0.01% Tween-20, 0.3% BSA,) supplemented with Phospho-Bad (Ser112) Antibody (Cell Signaling 9291) diluted 666-fold, and Streptavidin donor beads (PerkinElmer 6760002) along with Protein-A acceptor beads (PerkinElmer 6760137) at 15 μg/mL each. Supplementation of the STOP buffer with beads and stopping the reactions were done under reduced light. Prior to the stopping reactions STOP buffer with beads was preincubated for 1 h in the dark at room temperature. After stopping the reactions, plates were incubated for 1 h in the dark at room temperature before reading on a PHERAstar FS plate reader (BMG Labtech) under reduced light.

[2] = system: pBAD in KMS.12.BM cells; assay: Pim pBAD signaling assay in KMS.12.BM cells (Example B); type: cell-based; conditions: Homo sapiens, 2.5 h incubation, pBAD ELISA
Protocol: KG-1A cells are purchased from ATCC (Manassas, Va.) and KMS.12.BM cells are purchased from NIBIO, JCRB cell bank (Tokyo, Japan) and maintained in the culture mediums recommended, RPMI, 10% FBS and IMDM 20% FBS (Mediatech, Manassas, Va.) respectively. To measure the pBAD inhibitory activity of the compounds, both cell lines are plated with the culture medium (1×10^6/well/100 μL for KG1A and 4×10^5 cells/well/in 100 μL for KMS12BM) into 96-well V bottom polypropylene plates (Matrix, Thermo Fisher, USA) and incubated 30 min. at 37° C. to normalize cell signaling from handling. Test compounds are added at an appropriate concentration range and further incubated for 2.5 h for KMS.12.BM cells and 4 h for KG1-A cells. Plates are centrifuged at 2000 RPM for 10 min. and supernatants aspirated. 100 μL lysis buffer with protease inhibitors (Cell Signaling Technologies, Danver, Mass., Sigma, St Louis Mo., EMD, USA) is added to the pellets, mixed well and set on ice for 30 min. Lysates are frozen overnight at −80° C. To measure the pBAD activity, a Cell Signaling ELISA kit (Cell Signaling Path Scan phosphor pBAD ELISA) is utilized. 50 μL of the lysate is tested per the ELISA protocol and the data analysis is performed by software on a SpectrMax5 plate reader (Molecular Devices, Sunnyvale, Calif.). IC50 determination is performed by fitting the curve of percent inhibition versus the log of the inhibitor concentration using the GraphPad Prism 5.0 software.

[3] = biological target: Pim-2 (Homo sapiens (Human), UniProt Q9P1W9); assay: Pim-2 kinase assay (Pim enzyme assays, Example A); type: biochemical; conditions: 1 mM ATP, CREBtide peptide substrate; read-out: PIM2 IC50
Pim-2, sequence (Q9P1W9 whole entry): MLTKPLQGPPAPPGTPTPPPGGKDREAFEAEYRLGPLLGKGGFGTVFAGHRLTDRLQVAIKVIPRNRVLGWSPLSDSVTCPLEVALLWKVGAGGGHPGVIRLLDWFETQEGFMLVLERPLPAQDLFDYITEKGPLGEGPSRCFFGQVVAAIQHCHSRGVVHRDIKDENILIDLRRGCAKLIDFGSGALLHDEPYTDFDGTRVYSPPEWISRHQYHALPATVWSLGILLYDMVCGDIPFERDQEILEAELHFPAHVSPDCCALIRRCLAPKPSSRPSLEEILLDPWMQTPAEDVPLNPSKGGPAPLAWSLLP
Protocol: Pim-2 kinase assay-20 μL reactions were run in white 384 well polystyrene plates dotted with 0.8 μL compound/DMSO in the assay buffer (50 mM Tris, pH 7.5, 0.01% Tween-20, 5 mM mgCl2, 0.01% BSA, 5 mM DTT), containing 0.05 μM Fluorescein-labeled CREBtide peptide substrate (Invitrogen PV3508), 1 mM ATP, and 1 nM enzyme (Invitrogen PV3649) for 2 h at 25° C. Reactions were stopped by addition of 10 μL TR-FRET Dilution Buffer (Invitrogen PV3574) with 30 mM EDTA and 1.5 nM LanthaScreen Tb-CREB pSer133 antibody (Invitrogen PV3566). After 30 min. incubation at room temperature, plates were read on a PHERAstar FS plate reader (BMG Labtech).

[4] = biological target: Pim-3 (Homo sapiens (Human), UniProt Q86V86); assay: Pim-3 kinase assay (Pim enzyme assays, Example A); type: biochemical; conditions: 1 mM ATP, BAD peptide substrate; read-out: PIM3 IC50
Protocol: as §1

Pim-1, sequence (P11309 whole entry): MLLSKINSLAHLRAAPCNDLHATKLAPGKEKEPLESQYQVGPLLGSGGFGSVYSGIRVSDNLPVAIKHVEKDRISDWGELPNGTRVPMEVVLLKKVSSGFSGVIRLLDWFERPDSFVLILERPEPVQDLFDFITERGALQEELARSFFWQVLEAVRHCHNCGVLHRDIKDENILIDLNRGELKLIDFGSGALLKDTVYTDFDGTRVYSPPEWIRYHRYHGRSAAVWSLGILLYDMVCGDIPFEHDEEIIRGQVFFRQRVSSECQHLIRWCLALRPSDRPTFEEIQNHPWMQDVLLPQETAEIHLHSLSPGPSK

C[C@@H]1C[C@H](N)CN(c2ccncc2NC(=O)c2ccc3ncc(-c4c(F)cccc4F)cc3n2)C1 [Example 1, N-{4-[(3S,5R)-3-Amino-5-methylpiperidin-1-yl]pyridin-3-yl}-7-(2,6-difluorophenyl)-1,5-naphthyridine-2-carboxamide]
IC50 [1]: ≤ 0.01 µM | IC50 [2]: ≤ 0.05 µM | IC50 [3]: ≤ 0.1 µM | IC50 [4]: ≤ 0.01 µM

CC(C)c1cnc2ccc(C(=O)Nc3cnccc3N3C[C@H](C)C[C@H](N)C3)nc2c1 [Example 2, N-{4-[(3S,5R)-3-Amino-5-methylpiperidin-1-yl]pyridin-3-yl}-7-isopropyl-1,5-naphthyridine-2-carboxamide]
IC50 [1]: ≤ 0.01 µM | IC50 [2]: ≤ 0.05 µM | IC50 [3]: ≤ 0.1 µM | IC50 [4]: ≤ 0.01 µM

C[C@@H]1C[C@H](N)CN(c2ccncc2NC(=O)c2ccc3ncc(C4CCOCC4)cc3n2)C1 [Example 3, N-{4-[(3S,5R)-3-Amino-5-methylpiperidin-1-yl]pyridin-3-yl}-7-(tetrahydro-2H-pyran-4-yl)-1,5-naphthyridine-2-carboxamide]
IC50 [1]: ≤ 0.01 µM | IC50 [2]: ≤ 0.05 µM | IC50 [3]: 0.1 to 1 µM | IC50 [4]: ≤ 0.01 µM

COc1cc(F)c(-c2cnc3ccc(C(=O)Nc4cnccc4N4C[C@H](C)C[C@H](N)C4)nc3c2)c(F)c1 [Example 4, N-{4-[(3S,5R)-3-Amino-5-methylpiperidin-1-yl]pyridin-3-yl}-7-(2,6-difluoro-4-methoxyphenyl)-1,5-naphthyridine-2-carboxamide]
IC50 [1]: ≤ 0.01 µM | IC50 [2]: ≤ 0.05 µM | IC50 [3]: ≤ 0.1 µM | IC50 [4]: ≤ 0.01 µM

CCn1cc(-c2cnc3ccc(C(=O)Nc4cnccc4N4C[C@H](C)C[C@H](N)C4)nc3c2)cn1 [Example 5, N-{4-[(3S,5R)-3-Amino-5-methylpiperidin-1-yl]pyridin-3-yl}-7-(1-ethyl-1H-pyrazol-4-yl)-1,5-naphthyridine-2-carboxamide]
IC50 [1]: ≤ 0.01 µM | IC50 [2]: ≤ 0.05 µM | IC50 [3]: 0.1 to 1 µM | IC50 [4]: ≤ 0.01 µM

CC(C)c1cnc2ccc(C(=O)Nc3cnccc3N3C[C@@H](N)[C@H](O)[C@@H](C)C3)nc2c1 [Example 6]
IC50 [1]: ≤ 0.01 µM | IC50 [2]: ≤ 0.05 µM | IC50 [3]: ≤ 0.1 µM | IC50 [4]: ≤ 0.01 µM

COc1ccc(-c2cnc3ccc(C(=O)Nc4cnccc4N4C[C@@H](N)[C@H](O)[C@@H](C)C4)nc3c2)cn1 [Example 7, N-{4-[(3R,4R,5S)-3-Amino-4-hydroxy-5-methylpiperidin-1-yl]pyridin-3-yl}-7-(6-methoxypyridin-3-yl)-1,5-naphthyridine-2-carboxamide]
IC50 [1]: ≤ 0.01 µM | IC50 [2]: ≤ 0.05 µM | IC50 [3]: ≤ 0.1 µM | IC50 [4]: ≤ 0.01 µM

C[C@H]1CN(c2ccncc2NC(=O)c2ccc3ncc(N4CCOCC4)cc3n2)C[C@@H](N)[C@@H]1O [Example 8, N-{4-[(3R,4R,5S)-3-Amino-4-hydroxy-5-methylpiperidin-1-yl]pyridin-3-yl}-7-morpholin-4-yl-1,5-naphthyridine-2-carboxamide]
IC50 [1]: ≤ 0.01 µM | IC50 [2]: ≤ 0.05 µM | IC50 [3]: 0.1 to 1 µM | IC50 [4]: ≤ 0.01 µM

CCc1ccc2ccc(C(=O)Nc3cnccc3N3C[C@@H](N)[C@H](O)[C@@H](C)C3)nc2c1 [Example 9, N-{4-[(3R,4R,5S)-3-Amino-4-hydroxy-5-methylpiperidin-1-yl]pyridin-3-yl}-7-ethylquinoline-2-carboxamide]
IC50 [1]: ≤ 0.01 µM | IC50 [2]: ≤ 0.05 µM | IC50 [3]: 0.1 to 1 µM | IC50 [4]: ≤ 0.01 µM

CC(C)c1ccc2ccc(C(=O)Nc3cnccc3N3C[C@@H](N)[C@H](O)[C@@H](C)C3)nc2c1 [Example 10, N-{4-[(3R,4R,5S)-3-Amino-4-hydroxy-5-methylpiperidin-1-yl]pyridin-3-yl}-7-isopropylquinoline-2-carboxamide]
IC50 [1]: ≤ 0.01 µM | IC50 [2]: ≤ 0.05 µM | IC50 [3]: ≤ 0.1 µM | IC50 [4]: ≤ 0.01 µM

C[C@H]1CN(c2ccncc2NC(=O)c2ccc3ccc(C4CCOCC4)cc3n2)C[C@@H](N)[C@@H]1O [Example 11, N-{4-[(3R,4R,5S)-3-Amino-4-hydroxy-5-methylpiperidin-1-yl]pyridin-3-yl}-7-(tetrahydro-2H-pyran-4-yl)quinoline-2-carboxamide]
IC50 [1]: ≤ 0.01 µM | IC50 [2]: 0.05 to 0.25 µM | IC50 [3]: 0.1 to 1 µM | IC50 [4]: ≤ 0.01 µM

C[C@H]1CN(c2ccncc2NC(=O)c2ccc3ccc(N4CCOCC4)cc3n2)C[C@@H](N)[C@@H]1O [Example 12, N-{4-[(3R,4R,5S)-3-Amino-4-hydroxy-5-methylpiperidin-1-yl]pyridin-3-yl}-7-morpholin-4-ylquinoline-2-carboxamide]
IC50 [1]: ≤ 0.01 µM | IC50 [2]: ≤ 0.05 µM | IC50 [3]: ≤ 0.1 µM | IC50 [4]: ≤ 0.01 µM

C[C@@H]1C[C@H](N)CN(c2ccncc2NC(=O)c2ccc3ccc(N4CCOCC4)cc3n2)C1 [Example 13, N-{4-[(3S,5R)-3-Amino-5-methylpiperidin-1-yl]pyridin-3-yl}-7-morpholin-4-ylquinoline-2-carboxamide]
IC50 [1]: ≤ 0.01 µM | IC50 [2]: ≤ 0.05 µM | IC50 [3]: ≤ 0.1 µM | IC50 [4]: ≤ 0.01 µM

C[C@H]1CN(c2ccncc2NC(=O)c2ccc3ccc(N4CCC5(CCOCC5)CC4)cc3n2)C[C@@H](N)[C@@H]1O [Example 14, N-{4-[(3R,4R,5S)-3-Amino-4-hydroxy-5-methylpiperidin-1-yl]pyridin-3-yl}-7-(3-oxa-9-azaspiro[5.5]undec-9-yl)quinoline-2-carboxamide]
IC50 [1]: ≤ 0.01 µM | IC50 [2]: 0.05 to 0.25 µM | IC50 [3]: ≤ 0.1 µM | IC50 [4]: ≤ 0.01 µM

C[C@H]1CN(c2ccncc2NC(=O)c2ccc3ccc(N4CCC(C(F)(F)F)C4)cc3n2)C[C@@H](N)[C@@H]1O (stereo partly drawn) [Example 28, N-{4-[(3R,4R,5S)-3-Amino-4-hydroxy-5-methylpiperidin-1-yl]pyridin-3-yl}-7-[3-(trifluoromethyl)pyrrolidin-1-yl]quinoline-2-carboxamide]
IC50 [1]: ≤ 0.01 µM | IC50 [3]: 0.1 to 1 µM | IC50 [4]: ≤ 0.01 µM

C[C@@H]1C[C@H](N)CN(c2ccncc2NC(=O)c2ccc3ccc(N4CCC(C(F)(F)F)C4)cc3n2)C1 (stereo partly drawn) [Example 29, N-{4-[(3S,5R)-3-Amino-5-methylpiperidin-1-yl]pyridin-3-yl}-7-[3-(trifluoromethyl)pyrrolidin-1-yl]quinoline-2-carboxamide]
IC50 [1]: ≤ 0.01 µM | IC50 [3]: 0.1 to 1 µM | IC50 [4]: ≤ 0.01 µM

C[C@H]1CN(c2ccncc2NC(=O)c2ccc3ccc(N4CC(C)(C)C4)cc3n2)C[C@@H](N)[C@@H]1O [Example 32, N-{4-[(3R,4R,5S)-3-Amino-4-hydroxy-5-methylpiperidin-1-yl]pyridin-3-yl}-7-(3,3-dimethylazetidin-1-yl)quinoline-2-carboxamide]
IC50 [1]: ≤ 0.01 µM | IC50 [3]: 0.1 to 1 µM | IC50 [4]: ≤ 0.01 µM

C[C@@H]1C[C@H](N)CN(c2ccncc2NC(=O)c2ccc3ccc(N4CC(C)(C)C4)cc3n2)C1 [Example 33, N-{4-[(3S,5R)-3-Amino-5-methylpiperidin-1-yl]pyridin-3-yl}-7-(3,3-dimethylazetidin-1-yl)quinoline-2-carboxamide]
IC50 [1]: ≤ 0.01 µM | IC50 [3]: 1 to 10 µM | IC50 [4]: ≤ 0.01 µM

N[C@@H]1CN(c2ccncc2NC(=O)c2ccc3ncc(N4CCC5(CCOCC5)CC4)cc3n2)C[C@H](C2CC2)[C@H]1O [Example 40, N-{4-[(3R,4R,5S)-3-Amino-5-cyclopropyl-4-hydroxypiperidin-1-yl]pyridin-3-yl}-7-(3-oxa-9-azaspiro[5.5]undec-9-yl)-1,5-naphthyridine-2-carboxamide]
IC50 [1]: ≤ 0.01 µM | IC50 [3]: 0.1 to 1 µM | IC50 [4]: ≤ 0.01 µM
